row,SMILES,melting point
1,"N#CCCCC(=O)N[C@H]1CC[C@H](CCN2CCN(c3cc(Cl)ccc3Cl)CC2)CC1 [Example 371, 4-Cyano-N-(4-{2-[4-(2,5-dichlorophenyl)piperazin-1-yl]ethyl}cyclohexyl)butanamide]",179 °C
2,"COc1ccccc1N1CCN(CC[C@H]2CC[C@H](NC(=O)C3CC=CC3)CC2)CC1 [Example 372, Cyclopent-3-enecarboxylic acid (4-{2-[4-(2-methoxyphenyl)piperazin-1-yl]ethyl}cyclohexyl) amide]",202 °C
3,"O=C(CC1C=CCC1)N[C@H]1CC[C@H](CCN2CCN(c3cccc(C(F)(F)F)c3)CC2)CC1 (stereo partly shown) [Example 373, 2-Cyclopent-2-enyl-N-(4-{2-[4-(3-trifluoromethylphenyl)piperazin-1-yl]ethyl}cyclohexyl)acetamide]",154 °C
4,"N#CCCCC(=O)N[C@H]1CC[C@H](CCN2CCN(c3cc(F)c(F)c(F)c3)CC2)CC1 [Example 374, 4-Cyano-N-(4-{2-[4-(3,4,5-trifluorophenyl)piperazin-1-yl]ethyl}cyclohexyl)butanamide]",156 °C
5,CC(=O)c1cccc(N2CCN(CC[C@H]3CC[C@H](NC(=O)CCCC#N)CC3)CC2)c1 [Example 375],181 °C
6,"N#CCC(=O)N[C@H]1CC[C@H](CCN2CCN(c3ccccc3C#N)CC2)CC1 [Example 376, 2-Cyano-N-(4-{2-[4-(2-cyanophenyl)piperazin-1-yl]ethyl}cyclohexyl)acetamide]",190 °C
7,"N#CCCCC(=O)N[C@H]1CC[C@H](CCN2CCN(c3ccccc3C#N)CC2)CC1 [Example 377, 4-Cyano-N-(4-{2-[4-(2-cyanophenyl)piperazin-1-yl]ethyl}cyclohexyl)butanamide]",160 °C
8,"CCc1cccc(N2CCN(CC[C@H]3CC[C@H](NC(=O)C4CC=CC4)CC3)CC2)c1 [Example 378, Cyclopent-3-enecarboxylic acid (4-{2-[4-(3-ethylphenyl)piperazin-1-yl]ethyl}cyclohexyl) amide]",185 °C
9,"Cc1cccc(N2CCN(CC[C@H]3CC[C@H](NC(=O)C4CC=CC4)CC3)CC2)c1 [Example 379, Cyclopent-3-enecarboxylic acid {4-[2-(4-m-tolylpiperazin-1-yl)ethyl]cyclohexyl}]",200 °C
10,"Cc1cccc(N2CCN(CC[C@H]3CC[C@H](NC(=O)C4=CCCC4)CC3)CC2)c1 [Example 380, Cyclopent-1-enecarboxylic acid {4-[2-(4-m-tolylpiperazin-1-yl)ethyl]cyclohexyl} amide]",188 °C
11,"Cc1ccc(N2CCN(CC[C@H]3CC[C@H](NC(=O)CCCC#N)CC3)CC2)cc1Cl [Example 381, N-(4-{2-[4-(3-Chloro-4-methylphenyl)piperazin-1-yl]ethyl}cyclohexyl)-4-cyanobutanamide]",168 °C
12,"COc1ccccc1N1CCN(CC[C@H]2CC[C@H](NC(=O)CCCC#N)CC2)CC1 [Example 382, 4-Cyano-N-(4-{2-[4-(2-methoxyphenyl)piperazin-1-yl]ethyl}cyclohexyl)butanamide]",147 °C
13,"Cc1ccc(C(F)(F)F)cc1N1CCN(CC[C@H]2CC[C@H](NC(=O)CC#N)CC2)CC1 [Example 383, 2-Cyano-N-(4-{2-[4-(2-methyl-5-trifluoromethylphenyl)piperazin-1-yl]ethyl}cyclohexyl)acetamide]",192 °C
14,"O=C(N[C@H]1CC[C@H](CCN2CCN(c3ccc(F)cc3F)CC2)CC1)C1=CCCC1 [Example 384, Cyclopent-1-enecarboxylic acid (4-{2-[4-(2,4-difluorphenyl)-piperazin-1-yl]ethyl}cyclohexyl) amide]",205 °C
15,"O=C(COc1ccc(F)cc1)N[C@H]1CC[C@H](CCN2CCN(c3ccc(F)cc3F)CC2)CC1 [Example 385, N-(4-{2-[4-(2,4-Difluorophenyl)piperazin-1-yl]ethyl}cyclohexyl)-2-(4-fluorophenoxy)acetamide]",162 °C
16,"O=C(CC(F)(F)F)N[C@H]1CC[C@H](CCN2CCN(c3ccc(F)cc3F)CC2)CC1 [Example 386, N-(4-{2-[4-(2,4-Difluorophenyl)piperazin-1-yl]ethyl}cyclohexyl)-3,3,3-trifluoropropanamide]",184 °C
17,O=C(CC1CC=CC1)N[C@H]1CC[C@H](CCN2CCN(c3ccccc3F)CC2)CC1 [Example 387],188 °C
18,"Cc1ccc(C(F)(F)F)cc1N1CCN(CC[C@H]2CC[C@H](NC(=O)CCCC#N)CC2)CC1 [Example 388, 4-Cyano-N-(4-{2-[4-(2-methyl-5-trifluoromethylphenyl)piperazin-1-yl]ethyl}cyclohexyl)butyramide]",153 °C
19,"Cc1cc(N2CCN(CC[C@H]3CC[C@H](NC(=O)CC#N)CC3)CC2)c(Cl)cc1F [Example 389, N-(4-{2-[4-(2-Chloro-4-fluoro-5-methylphenyl)piperazin-1-yl]ethyl}cyclohexyl)-2-cyanoacetamide]",177 °C
20,Cc1cc(N2CCN(CC[C@H]3CC[C@H](NC(=O)CCCC#N)CC3)CC2)c(Cl)cc1F [Example 390],158 °C
21,"COc1ccc(C)c(N2CCN(CC[C@H]3CC[C@H](NC(=O)CCCC#N)CC3)CC2)c1 [Example 391, 4-Cyano-N-(4-{2-[4-(5-methoxy-2-methylphenyl)piperazin-1-yl]ethyl}cyclohexyl)butanamide]",170 °C
22,"COc1cc(OC)cc(N2CCN(CC[C@H]3CC[C@H](NC(=O)CCCC#N)CC3)CC2)c1 [Example 392, 4-Cyano-N-(4-{2-[4-(3,5-dimethoxyphenyl)piperazin-1-yl]ethyl}cyclohexyl)butanamide]",147 °C

# Next, values leading:
row,melting point,SMILES
1,189 °C,"N#CCCCC(=O)N[C@H]1CC[C@H](CCN2CCN(c3cccc(Cl)c3C#N)CC2)CC1 [Example 393, N-(4-{2-[4-(3-Chloro-2-cyanophenyl)piperazin-1-yl]ethyl}cyclohexyl)-4-cyanobutanamide]"
2,195 °C,O=C(N[C@H]1CC[C@H](CCN2CCN(c3cccc(F)c3)CC2)CC1)C1=CCCCC1 [Example 394]
3,170 °C,"N#CCCCC(=O)N[C@H]1CC[C@H](CCN2CCN(c3cccc(F)c3)CC2)CC1 [Example 395, 4-Cyano-N-(4-{2-[4-(3-fluorophenyl)piperazin-1-yl]ethyl}cyclohexyl)butanamide]"
4,150 °C,"O=C(COc1ccccc1)N[C@H]1CC[C@H](CCN2CCN(c3cccc(F)c3)CC2)CC1 [Example 396, N-(4-{2-[4-(3-Fluorophenyl)piperazin-1-yl]ethyl}cyclohexyl)-2-phenoxyacetamide]"
5,255 °C,"NC(=O)CCC(=O)N[C@H]1CC[C@H](CCN2CCN(c3cccc(F)c3)CC2)CC1 [Example 397, N-(4-{2-[4-(3-Fluorophenyl)-piperazin-1-yl]ethyl}cyclohexyl)-succinamide]"
6,169 °C,"NC(=O)CCC(=O)N[C@H]1CC[C@@H](CCN2CCN(c3cccc(F)c3)CC2)CC1 [Example 398, N-(4-{2-[4-(3-Fluorophenyl)-piperazin-1-yl]ethyl}cyclohexyl)-succinamide]"
7,202 °C,"O=C(N[C@H]1CC[C@H](CCN2CCN(c3cccc(F)c3)CC2)CC1)C1=CCCC1 [Example 400, Cyclopent-1-enecarboxylic acid (4-{2-[4-(3-fluorophenyl)-piperazin-1-yl]ethyl}cyclohexyl) amide]"
8,167 °C,"N#CCCCC(=O)N[C@H]1CC[C@H](CCN2CCN(c3ccc(F)cc3F)CC2)CC1 [Example 401, 4-Cyano-N-(4-{2-[4-(2,4-difluorophenyl)piperazin-1-yl]ethyl}cyclohexyl)butanamide]"
9,165 °C,"N#CCCC(=O)N[C@H]1CC[C@H](CCN2CCN(c3ccc(F)cc3F)CC2)CC1 [Example 403, 3-Cyano-N-(4-{2-[4-(2,4-difluorophenyl)piperazin-1-yl]ethyl}cyclohexyl)propanamide]"
10,168 °C,"N#CCCCC(=O)N[C@H]1CC[C@H](CCN2CCN(c3cc(C(F)(F)F)ccc3Cl)CC2)CC1 [Example 404, N-(4-{2-[4-(2-Chloro-5-trifluoromethylphenyl)piperazin-1-yl]ethyl}cyclohexyl)-4-cyanobutanamide]"
11,136 °C,"COc1ccc(C(F)(F)F)cc1N1CCN(CC[C@H]2CC[C@H](NC(=O)CCCC#N)CC2)CC1 [Example 405, 4-Cyano-N-(4-{2-[4-(2-methoxy-5-trifluoromethylphenyl)piperazin-1-yl]ethyl}cyclohexyl)butanamide]"
12,242 °C,"O=C(N[C@H]1CC[C@H](CCN2CCN(c3cccc(F)c3)CC2)CC1)C1=Cc2ccccc2C1 [Example 407, 1H-Indene-2-carboxylic acid (4-{2-[4-(3-fluorophenyl)piperazin-1-yl]ethyl}cyclohexyl) amide]"
13,215 °C,"O=C(N[C@H]1CC[C@H](CCN2CCN(c3cccc(F)c3)CC2)CC1)C1CC=CC1 [Example 408, Cyclopent-3-enecarboxylic acid (4-{2-[4-(3-fluorophenyl)-piperazin-1-yl]ethyl}cyclohexyl) amide]"
14,195 °C,"O=C(CC(F)(F)F)N[C@H]1CC[C@H](CCN2CCN(c3cccc(F)c3)CC2)CC1 [Example 409, 3,3,3-Trifluoro-N-(4-{2-[4-(3-fluorophenyl)piperazin-1-yl]ethyl}cyclohexyl)propanamide]"
15,118 °C,"CCN(CC)CCC(=O)N[C@H]1CC[C@H](CCN2CCN(c3cccc(F)c3)CC2)CC1 [Example 411, 3-Diethylamino-N-(4-{2-[4-(3-fluorophenyl)piperazin-1-yl]ethyl}cyclohexyl)propanamide]"
16,186 °C,"N#CCCC(=O)N[C@H]1CC[C@H](CCN2CCN(c3cccc(F)c3)CC2)CC1 [Example 412, 3-Cyano-N-(4-{2-[4-(3-fluorophenyl)piperazin-1-yl]ethyl}cyclohexyl)propanamide]"
17,158 °C,"Cc1ccc(C)c(N2CCN(CC[C@H]3CC[C@H](NC(=O)CCCC#N)CC3)CC2)c1 [Example 413, 4-Cyano-N-(4-{2-[4-(2,5-dimethylphenyl)piperazin-1-yl]ethyl}cyclohexyl)butanamide]"
18,165 °C,"N#CCCCC(=O)N[C@H]1CC[C@H](CCN2CCN(c3cc(Cl)ccc3F)CC2)CC1 [Example 414, N-(4-{2-[4-(5-Chloro-2-fluorophenyl)piperazin-1-yl]ethyl}cyclohexyl)-4-cyanobutanamide]"

# — US8802678B2, “Carbonylated (aza) cyclohexanes as dopamine D3 receptor ligands” (Bioprojet, priority 2006, dated 2014)
